Measurements from ChEMBL document CHEMBL1142650, “Novel transient receptor potential vanilloid 1 receptor antagonists for the treatment of pain: structure-activity relationships for ureas with quinoline, isoquinoline, quinazoline, phthalazine, quinoxaline, and cinnoline moieties” (J Med Chem, 2005).
Each block holds one compound with its values, some of them ahead of it.

How the values were obtained:
[1] = biological target: Transient receptor potential cation channel subfamily V member 1 (Homo sapiens, UniProt Q8NER1); assay: Inhibition of binding to human vanilloid receptor subtype VR1
[2] = Volume of distribution in rat; assay type: ADME, organism-based; details: in vivo, read-out: Vbeta
[3] = biological target: Transient receptor potential cation channel subfamily V member 1 (Rattus norvegicus, UniProt O35433); assay: Inhibition of binding to rat transient receptor potential vanilloid 1 receptor
[4] = organism: Rattus norvegicus; assay: Concentration required to reduce thermal hyperalgesia in the complete Freund's adjuvant (CFA) model of chronic inflammatory pain; assay type: functional
[5] = Plasma protein binding in rat; assay type: ADME, cell-free; details: read-out: Plasma protein binding (converted)
[6] = Plasma protein binding in human; assay type: ADME, cell-free; details: read-out: Plasma protein binding (converted)
[7] = Maximum concentration in rat; assay type: ADME, organism-based; details: in vivo
[8] = Half life in rat; assay type: ADME; details: in vivo

Sequence of Transient receptor potential cation channel subfamily V member 1 (Homo sapiens, UniProt Q8NER1) (Q8NER1 whole entry): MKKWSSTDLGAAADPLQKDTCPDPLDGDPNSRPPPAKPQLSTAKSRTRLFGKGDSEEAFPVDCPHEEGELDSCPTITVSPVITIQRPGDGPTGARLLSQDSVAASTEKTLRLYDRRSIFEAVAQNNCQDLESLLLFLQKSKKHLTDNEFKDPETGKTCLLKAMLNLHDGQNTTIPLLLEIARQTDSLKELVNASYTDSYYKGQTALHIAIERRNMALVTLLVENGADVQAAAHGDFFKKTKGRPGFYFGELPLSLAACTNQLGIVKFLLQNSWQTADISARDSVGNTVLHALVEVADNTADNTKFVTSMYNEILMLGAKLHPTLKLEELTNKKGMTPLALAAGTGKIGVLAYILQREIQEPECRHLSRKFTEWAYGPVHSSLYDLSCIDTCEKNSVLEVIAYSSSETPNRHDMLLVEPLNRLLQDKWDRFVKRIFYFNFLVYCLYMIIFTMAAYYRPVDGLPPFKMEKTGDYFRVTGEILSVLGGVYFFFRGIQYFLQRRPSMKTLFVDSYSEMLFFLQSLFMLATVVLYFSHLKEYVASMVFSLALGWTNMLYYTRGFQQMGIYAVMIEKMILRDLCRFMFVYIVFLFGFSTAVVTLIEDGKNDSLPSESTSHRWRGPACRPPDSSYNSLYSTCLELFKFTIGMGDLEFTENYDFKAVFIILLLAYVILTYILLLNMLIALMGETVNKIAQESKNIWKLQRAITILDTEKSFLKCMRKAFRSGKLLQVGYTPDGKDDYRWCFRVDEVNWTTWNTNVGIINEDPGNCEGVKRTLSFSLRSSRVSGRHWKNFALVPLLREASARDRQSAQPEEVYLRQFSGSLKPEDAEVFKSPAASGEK
Sequence of Transient receptor potential cation channel subfamily V member 1 (Rattus norvegicus, UniProt O35433) (O35433 whole entry): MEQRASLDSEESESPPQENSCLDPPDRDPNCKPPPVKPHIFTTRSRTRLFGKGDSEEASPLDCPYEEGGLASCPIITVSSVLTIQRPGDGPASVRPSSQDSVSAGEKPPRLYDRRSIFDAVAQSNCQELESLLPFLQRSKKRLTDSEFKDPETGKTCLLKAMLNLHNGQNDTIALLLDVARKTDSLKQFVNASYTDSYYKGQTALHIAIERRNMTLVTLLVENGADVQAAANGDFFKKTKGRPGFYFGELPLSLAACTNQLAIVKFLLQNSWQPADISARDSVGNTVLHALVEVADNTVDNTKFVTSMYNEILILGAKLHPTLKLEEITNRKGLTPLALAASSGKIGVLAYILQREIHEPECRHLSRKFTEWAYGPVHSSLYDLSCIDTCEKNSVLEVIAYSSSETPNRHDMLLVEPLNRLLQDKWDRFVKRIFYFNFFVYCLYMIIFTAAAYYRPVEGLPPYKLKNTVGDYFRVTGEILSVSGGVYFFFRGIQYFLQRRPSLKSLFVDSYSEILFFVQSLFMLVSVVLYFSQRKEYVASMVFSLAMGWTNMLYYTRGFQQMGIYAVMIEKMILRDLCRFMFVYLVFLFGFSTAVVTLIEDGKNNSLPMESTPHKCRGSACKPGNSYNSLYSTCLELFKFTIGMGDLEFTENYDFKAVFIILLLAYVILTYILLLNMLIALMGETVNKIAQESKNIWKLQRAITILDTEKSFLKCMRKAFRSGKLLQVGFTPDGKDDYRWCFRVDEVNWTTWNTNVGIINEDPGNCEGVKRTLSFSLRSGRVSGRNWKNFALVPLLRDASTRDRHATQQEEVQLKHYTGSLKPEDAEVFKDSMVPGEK

- IC50 [1]: 22 nM
SMILES: CSc1cccc(NC(=O)Nc2cccc3ccc(O)cc23)c1

- Vd [2]: 0.6 L/kg
- IC50 [3]: 24 nM
- IC50 [1]: 4 nM
- fraction unbound [5]: 0.029
- fraction unbound [6]: 0.02
- Cmax [7]: 3000 ng/mL
- half-life [8]: 36 min
SMILES: O=C(NCc1ccc(C(F)(F)F)cc1)Nc1cccc2cnccc12
- ED50 [4]: 30 µmol/kg

- IC50 [1]: 51 nM
SMILES: O=C(NCc1cccc(C(F)(F)F)c1)Nc1cccc2cnccc12

- IC50 [1]: 20 nM
SMILES: O=C(NCCc1cccc(C(F)(F)F)c1)Nc1cccc2cnccc12
